Reference: PubChem BioAssay (NCI)
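Protocol summary: plate cells (96-well), add compound at 5 concentrations, incubate 48 h, interpolate endpoints linearly. TGI: total growth inhibition.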

Experiments:
Assay in all cases: NCI tumour cell line growth inhibition, 48 h
BT-549 breast = tested on: BT-549 breast
MCF7 breast = tested on: MCF7 breast
MDA-N = tested on: MDA-N
KM20L2 colon = tested on: KM20L2 colon
LXFL 529 NSCLC = tested on: LXFL 529 NSCLC
M19-MEL melanoma = tested on: M19-MEL melanoma
RXF-631 renal = tested on: RXF-631 renal
XF 498 CNS = tested on: XF 498 CNS
P388 leukemia = tested on: P388 leukemia
P388/ADR leukemia = tested on: P388/ADR leukemia
SN12K1 renal = tested on: SN12K1 renal

Compound | TGI (MCF7 breast) [µM] | TGI (MDA-N) [µM] | TGI (KM20L2 colon) [µM] | TGI (M19-MEL melanoma) [µM] | TGI (XF 498 CNS) [µM] | other results
C=CCN1C(=O)/C(=C/c2ccccc2)N=C1SC1OC(COC(=O)c2ccccc2)C(OC(=O)c2ccccc2)C1OC(=O)c1ccccc1 (stereo not drawn) | > 100 | – | – | – | – | TGI (BT-549 breast): > 100 µM
CCN1c2ccccc2-n2c(C)nnc2-c2c1n[nH]c2-c1ccccc1 | – | > 100 | – | – | – | –
CC(C)OP(=O)(OC(C)C)c1c(Nc2ccccc2)n[nH]c1N | > 100 | > 100 | – | – | – | –
C[C@]12CC[C@@H]3c4ccc(O)cc4CC[C@H]3[C@@H]1C/C(=C\c1ccncc1)C2=O | > 100 | > 100 | – | – | – | –
C=C(C(=O)C(=O)Oc1ccc(Cl)cc1)C(=O)c1ccc(C)cc1 | – | – | > 100 | 35.4 | > 100 | TGI (LXFL 529 NSCLC): 80 µM; TGI (RXF-631 renal): > 100 µM
C#CCCCCC#Cc1ccccc1C(=O)OC | – | – | > 100 | – | > 100 | –
COCCOCOc1ccc(OCc2ccccc2)cc1 | > 51.4 | – | > 100 | > 100 | > 100 | TGI (P388 leukemia): 60.7 µM; TGI (P388/ADR leukemia): 89.1 µM; TGI (SN12K1 renal): > 100 µM
Oc1ccc(/C=C/c2cc(O)cc(O)c2)cc1 | > 100 | > 100 | – | – | – | TGI (BT-549 breast): > 100 µM
C/C(CCOC1CCCCO1)=C(\C)[Si](C)(C)C (stereo not drawn) | – | – | > 100 | > 100 | > 100 | TGI (LXFL 529 NSCLC): > 100 µM
